Results on three molecules are retold here after patent US12593844B2, “Method and compounds to induce plant tolerance against arthropod pests” (Universiteit Gent, priority 2018, dated 2026).

Series [1] has as its system lignification in the Casparian strip. The note with it: five day old seedlings grown in vitro, continuous exposure to 10 μM; Van de Wouwer et al., 2016; cited from earlier work.
The subject of series [2] is C4H gene. The experiment in a line: C4H gene expression in root system of rice plants after foliar treatment. It is filed as in vivo, Oryza sativa cv. Bomba. Conditions: fourteen-day old rice plants, foliar treatment 24 and 3 hours prior to harvest, 100 μM. The text has this:
Techniques for measuring and determining the (effect on) activity of C4H are well known to the one of ordinary skill in the art. Useful methods to determine inhibition of C4H activity are (incorporated by reference): • Measurement of the conversion efficiency of trans-cinnamic acid labeled with ^13C or ^14C in the presence of a potential C4H inhibitor in plant cell cultures or in yeast microsomes in which the CYP73A1 is expressed (as described in Schoch et al. 2002; Van de Wouwer et al. 2016; Schalk et al. 1998). Representative inhibition kinetics values obtained in cell suspensions for both competitive and irreversible C4H inhibitors can be found in Table 1 in Schoch et al., 2002 (incorporated by reference). • Inhibition of the C4H enzyme increases the concentration of free trans-cinnamic acid, which is rapidly conjugated in planta. The accumulation of trans-cinnamic acid amino acid conjugates, which can be quantified using HPLC-MS, can be used as a proxy measure for C4H inhibition in planta. This approach is outlined in Steenackers et al. 2016. […] Representative values for the increase in the quantity of trans-cinnamic acid conjugates are found in Supplemental Figure S2 in Steenackers et al. 2016 (incorporated by reference). • Inhibition of the C4H enzyme causes a compensatory upregulation of the C4H gene, as shown in Example 20. […]

Series [3] has as its system Arabidopsis thaliana seedlings. Conditions: continuous exposure of seedlings; Steenackers et al. 2016; read-out: IC50-root (dose required to reduce primary root elongation by 50%); cited from earlier work.
Series [4] has as its system Tetranychus urticae. Put plainly: Two-spotted spider mite reproduction on tomato after foliar spray. The format is in vivo. The note with it: 300 μM foliar spray, ten days after inoculation with ten females. How it is done:
Tomato (cv. Moneymaker) seeds were obtained from Vreeken's Zaden (Dordrecht, the Netherlands). Seeds were germinated on potting soil at 22° C.; seedlings were then transferred to individual pots filled with potting soil and placed in a growth chamber at 24° C. with 16 hours per day of fluorescent light.
(§1) A 100 mM piperonylic acid stock was prepared by dissolving piperonylic acid (Sigma-Aldrich, Saint-Louis, USA) in DMSO (Duchefa Biochemie, Haarlem, the Netherlands). Before use, this stock solution was diluted with distilled water to a concentration of 300 μM and mixed with 0.1 v/v % Tween 20. Working solutions of 1000 μM PA (Aculops experiment) were prepared in a similar manner from a 300 mM stock solution. The resulting spraying solution was applied to plants until run-off using an atomizer. […]
Tomato plants in the early four-leaf stage were inoculated with T. urticae by placing ten adult females on the second leaf of each plant. […] All moving mites present on the leaf were counted (regardless of life stage).
Images of tomato leaves damaged by S. exigua were analyzed using the ImageJ software. For T. urticae damage, the total area of the second leaf of each plant was quantified using the polygon selection tool. Then, the total area of chlorotic patches on the leaf was measured in the same manner and the ratio of both values was calculated to obtain the percentage of chlorotic leaf.

Series [5] deals with Frankliniella occidentalis. The experiment in a line: Western flower thrips progeny on pepper plants. The format is in vivo. Conditions: 300 μM, progeny counted three days after four-day infestation with ten adults (control 19.0±1.84). As to the method: Pepper seedlings (cv. Cayenne long slim) were transferred to individual pots with potting soil two weeks after sowing. Plants were maintained in a growth room (25° C., 16:8 L:D) for two additional weeks. Plants were removed from the soil and placed with their roots in water (to accommodate the Plexiglas cage system) at the onset of thrips infestation (4 weeks old).
as §1, with “atomizer. As a control, a solution consisting of an equivalent amount of DMSO and Tween 20 was used in the same manner. Plants were sprayed twice, one and eight days before inoculation.” for “atomizer.”
F. occidentalis was reared on bean pods in an incubator at 28° C.; 70% RH and 16:8 L:D. For inoculation of the PA-treated (300 μM) or Control plants, 10 females (two days old since turning adult) were transferred with a fine brush to a pepper plant inside a Plexiglas cage. After four days, all females were removed, while their progeny was counted three days later.

For series [6], the system named is Spodoptera exigua. The experiment in a line: Acute (direct) toxicity to Spodoptera exigua L3 larvae. It is filed as in vivo. Conditions: 300 μM, out of 30 larvae (control 29). How it is done: Spodoptera exigua—S. exigua was reared on an artificial diet in a 24° C. incubator. Recently molted L3 larvae were placed in petri dishes containing tissue paper and 2 g of artificial feed pellets. Both tissue paper and pellets were wetted with 10 ml of either distilled water or distilled water containing 300 μM PA. Twenty-four and seventy-two hours later, the number of surviving caterpillars was counted. A caterpillar was considered alive if it was either actively moving, or if it moved when gently prodded. It was also recorded whether a caterpillar was feeding (present on a feed pellet) to measure whether PA-treated feed pellets were repellent to the caterpillar.
S. exigua—Direct toxicity of piperonylic acid (PA) was determined using the protocol outlined in the materials and methods section. Briefly, 30 recently molted L3 larvae were placed per petri dish containing tissue paper and food pellets that had been wetted with either a 300 μM piperonylic acid solution or a water control.

Series [7] relates to Aculops lycopersici. Put plainly: Acute (direct) toxicity to russet mites sprayed on leaf disks. It is filed as in vivo. Conditions: 300 μM spray, after 24 h. How it is done:
Aculops lycopersici—Tomato russet mites were collected from a lab culture and transferred to a tomato leaf disk placed on agar. Each disk received 25 to 30 adult mites. The disks with mites were then sprayed in a custom-build spray tower with either 300 μM PA or control solution, six replicates each. The russet mites were incubated at 25° C., 18:6 L:D. Mortality was scored after 24 h. Mites were scored as either lost (in agar barrier), alive or dead.
A. lycopersici—Direct toxicity of PA to russet mites was evaluated by spraying mites on leaf disks with either 300 μM PA or control solution.

For series [8], the system named is Tetranychus urticae. The experiment in a line: Acute (direct) toxicity to spider mites sprayed on leaf discs. The format is in vivo. The note with it: 300 μM spray, after 24 h. How it is done: Tetranychus urticae—Spider mites of a laboratory reference strain were collected and placed on arenas consisting of a square bean leaf disc, placed on wet cotton wool and lined with paper tissue. Each arena received 25 to 30 adult female mites. The arenas were then sprayed in a custom-build spray tower with either 300 μM PA or control solution, six replicates each. The mites were incubated at 25° C., 18:6 L:D. Mortality was scored after 24 h. Mites were scored as either drowned (in water barrier), alive or dead (not moving its own body length within 10 seconds after prodding with a tiny brush).
T. urticae—Direct toxicity of PA to spider mites was evaluated by spraying mites on leaf disks with either 300 μM PA or control solution.

Series [9] has as its system Steneotarsonemus spinki. The experiment in a line: Greenhouse experiment: rice yield and fertility under panicle rice mite stress. It is filed as in vivo. As to the method: Rice seeds (cv. Kitaake) were sterilized and germinated on wet paper in the dark at 30° C. Seedlings were transferred to sterilized potting soil and placed in a climate-controlled compartment at the Ghent University greenhouse complex (Melle, Belgium). The compartment was known to host a natural mite infestation; the causal mite had previously been identified as Steneotarsonemus spinki by professor Thomas van Leeuwen of the agrozoology lab at Ghent University. Pots were arranged in a completely randomized manner in the same tray.
To determine the effects of C4H inhibition on yield and fertility in the presence of mites, rice (Oryza sativa cv. Kitaake) was grown in a greenhouse until maturity and treated with a control or 300 μM PA foliar spray at bi-weekly intervals. This greenhouse is naturally infested with the panicle rice mite (Steneotarsonemus spinki).

In series [10] the test system is Arabidopsis thaliana seedlings. The experiment in a line: Primary root elongation of Arabidopsis thaliana seedlings (IC50-root). It is filed as in vivo. Conditions: continuous exposure of seedlings, unpublished data, read-out: IC50-root (dose required to reduce primary root elongation by 50%).
The subject of series [11] is Bemisia tabaci. The experiment in a line: Tobacco whitefly egg development on cotton after foliar spray. It is filed as in vivo. The note with it: 300 μM foliar spray. How it is done:
Cotton seeds were germinated in individual pots filled with potting soil and placed in a greenhouse with supplemental lighting (16 hours of light per day).
(§2) A 100 mM piperonylic acid stock was prepared by dissolving piperonylic acid (Sigma-Aldrich, Saint-Louis, USA) in DMSO (Duchefa Biochemie, Haarlem, the Netherlands). Before use, this stock solution was diluted with distilled water to a concentration of 300 μM and mixed with 0.1 v/v % Tween 20. Working solutions of 1000 μM PA (Aculops experiment) were prepared in a similar manner from a 300 mM stock solution. The resulting spraying solution was applied to plants until run-off using an atomizer. As a control, a solution consisting of an equivalent amount of DMSO and Tween 20 was used in the same manner. Plants were sprayed twice, one and eight days before inoculation. The tomato plants used in the spider mite experiment were sprayed a final time five days after inoculation, but only on the non-inoculated leaves to avoid direct effects of the spray on the mites.
B. tabaci (biotype Q) was reared on cotton plants under controlled laboratory conditions. Approximately sixty mixed-sex adults were collected and placed in ventilated vials attached to the leaves of two-week old cotton plants. After being allowed to oviposit for 24 hours, the adults were removed. Eight days after oviposition, leaves were detached and the number of unhatched eggs, crawlers and nymphs per plant was recorded.

For series [12], the system named is Rhopalosiphum padi. Put plainly: Bird cherry-oat aphid reproduction on wheat, second experiment (synchronized aphids). It is filed as in vivo. Conditions: 300 μM foliar spray, ten days. As to the method:
(§3) Winter wheat (cv. Sahara) seeds were obtained from Aveve Agrarisch (Landen, Belgium). Seeds were washed with a 10% ethanol solution to remove residual fungicide traces and then germinated on wet paper at room temperature. Seedlings were transferred to potting soil and placed in a growth chamber at 22° C. with 16 hours per day of fluorescent light.
as §1, with “atomizer. As a control, a solution consisting of an equivalent amount of DMSO and Tween 20 was used in the same manner.” for “atomizer.”
In the second experiment, R. padi aphids were reared on barley plants grown at room temperature. […] Twenty-four hours later, the number of remaining adults on each pot was recorded. Ten days later, the number of aphids in each pot was counted. The reproductive factor was calculated by dividing the number of aphids counted after ten days by the number of remaining adult females twenty-four hours after inoculation.

Series [13] has as its system Aculops lycopersici. Put plainly: Tomato russet mite population growth on tomato. The note with it: ten days after inoculation with 30 mites. It is filed as in vivo. As to the method:
as §2
A. lycopersici was reared on tomato plants in an incubator at 27° C.; 50% RH and 16:8 L:D. For inoculation of the PA-treated (300 μM or 1000 μM) or Control plants, 30 mites were transferred with a fine brush to a small leaf disk (1 cm), which was then placed on top of the plants. The mites were allowed the reproduce on the tomato plants during ten days, after which the total number of mites was compared.

Series [14] deals with Rhopalosiphum padi. Put plainly: Bird cherry-oat aphid reproduction on wheat, first experiment. The note with it: 300 μM foliar spray, ten days. It is filed as in vivo. How it is done: as §3
as §1, with “atomizer. As a control, a solution consisting of an equivalent amount of DMSO and Tween 20 was used in the same manner.” for “atomizer.”
In the first experiment, R. padi aphids were reared on barley plants grown at room temperature. […] Twenty-four hours later, the number of remaining adults on each pot was recorded. Ten days later, the number of aphids in each pot was counted. The reproductive factor was calculated by dividing the number of aphids counted after ten days by the number of remaining adult females twenty-four hours after inoculation.

[15] abbreviates: rice, 300 μM foliar spray bi-weekly, three months after emergence.

Like-named read-outs stand apart in the source and are kept apart here.

Regarding `O=C(O)c1ccc(I)cc1` [4-IBA, 4-iodobenzoic acid], the “increase of the number of non-lignified endodermal cells in the Casparian strip region” value in [1] is reported as 57%.

As to `O=C(O)C=Cc1ccc2c(c1)OCO2` [MDCA, 3,4-methylenedioxycinnamic acid], in [1], the “increase of the number of non-lignified endodermal cells in the Casparian strip region” value was 104%. The “increase of C4H expression in the root system” value in [2] is “three-fold”. Moreover, the IC50 (usually the midpoint of a concentration-inhibition curve) in series [3] was 5.07 µM.

As to `O=C(O)c1ccc2c(c1)OCO2` [PA, Piperonylic acid], the “change in number of mites present on the leaf vs control” value in [4] is reported as −49%. The “change in percentage of visibly chlorotic leaf area vs control” value in series [4] is listed as −62%. In addition, the “number of thrips larvae recovered (mean±SE)” value in [5] is given as 11.33±1.82 larvae. In addition, the L3 larvae alive in [6] (after seventy-two hours) worked out at 27; in series [6] (after twenty-four hours) it was 28. The “russet mite mortality vs control” value in [7] is listed as “No significant difference”. Besides, the “spider mite mortality vs control” value in series [8] is “No significant difference”. Moreover, the “increase of the number of non-lignified endodermal cells in the Casparian strip region” value in series [1] is 134%. Also, the “change in number of seeds vs control” value in series [9] (rice cv. Kitaake, 300 μM foliar spray at bi-weekly intervals, three months after emergence) is “+104%”. For the same molecule, the “empty panicles vs control” value in series [9] (setting [15]) is given as “fewer empty panicles”. In addition, the “tillers developed vs control” value in [9] (setting [15]) is “more tillers”. Besides, the “change in seed germination rate vs control” value in series [9] (seeds from treated plants, seven days on wet paper) is “+45%”. Moreover, the IC50 in [10] worked out at 40 µM. In addition, the “number of eggs deposited on cotton plants” value in series [11] (24 hours oviposition) is reported as “did not affect”. In series [11] (eight days after oviposition (control 3%)), the “eggs failed to hatch” value is recorded as 20%. In [11] (eight days after oviposition (control 16%)), the “eggs developed into nymphs” value is 9%. Moreover, the “change in reproductive factor of R. padi vs control” value was 29% in series [12] and −32% in series [14]. The “increase of C4H expression in the root system” value in [2] was “ten-fold”. Moreover, the “reduction of russet mite population growth vs control” value in series [13] (300 μM, not significant (p=0.052)) was “about 50%”; in series [13] (1000 μM, not significant (p=0.089)) it was “about 50%”.
